Earlier results as cited in patent US4975422A, “Angiogenesis inhibitor” (Kureha Kagaku Kogyo Kabushiki Kaisha, priority 1988, dated 1990).

Conditions: oral; species not stated

Which LD50 does the source give for COc1ccc2c(c1)c(CC(=O)O)c(C)n2C(=O)c1ccc(Cl)cc1 [indomethacin] here?
The LD50 was 50 mg/kg.
